One compound from US12226410B2, “Methods for enhancing cellular clearance of pathological molecules via activation of the cellular protein ykt6” (NORTHWESTERN UNIVERSITY, priority 2019, dated 2025) can be followed below.

One experiment relates to ykt6. In words: FTI treatment of DASYN53 mice: membrane-associated ykt6 and SNARE complexes. The format is in vivo. The following applies: DASYN53 mice 12-14 months; i.p. 0.9 mg/kg, 26d; olfactory bulbs, midbrain. The protocol:
(§1) FIGS. 7A, 7B, 7C, 7D, and 7E. FTI treatment restores functional membrane-associated ykt6 complexes in DASYN53 mice. 7A) Immunohistochemistry in the midbrain of mice showing ykt6, tyrosine hydroxylase (TH), NeuN, and nuclei (DAPI). Scale bar, 50 μm. 7B) Ykt6 membrane shift analysis in olfactory bulbs of FTI (LNK-754)-injected DASYN53 mice (12-14 months, i.p. 26d, 0.9 mg/kg) (n=5, non-transgenic (nTg)+veh; n=4, DASYN53+veh; n=4 DASYN53+FTI). GAPDH and sec22b are loading controls. 7C) SEC/western blot analysis of midbrains of FTI-treated DASYN53 mice. Inputs are shown on the left. NSE is a loading control. […] (n=3, nTg+veh; n=4, DASYN53+veh; n=4 DASYN53+FTI). 7D) Quantification of complexes from SEC in 7C. 7E) GCase maturation was assessed in midbrain lysates by endo H resistance (n=4, nTg+veh; n=4, DASYN53+veh; n=4 DASYN53+FTI). For all quantifications, each point represents a measurement from an individual animal. Values are the mean+/−SEM, *p<0.05; **p<0.01, ***p<0.001, ANOVA with Tukey's post-hoc test.
Treatment of C57Bl/6 and DASYN53 mice with farnesyltransferase inhibitors. 3 mo old C57BL6 mice were i.p. injected daily with 0.9 mg/kg LNK-754 that was formulated in a vehicle of 0.5% sodium carboxymethylcellulose and filtered before use for 14 days. DASYN53 mice were i.p. injected daily with 0.9 mg/kg LNK-754 as above. […]

A further experiment concerns GCase. The experiment in a line: FTI treatment of DASYN53 mice: GCase maturation and activity in midbrain. The note with it: i.p. 0.9 mg/kg, 26d. The format is in vivo. The protocol: as §1, with “Values are the mean+/−SEM, *p<0.05; **p<0.01, ***p<0.001, ANOVA with Tukey's post-hoc test.” left out
FIGS. 8A, 8B, 8C, 8D, 8E, and 8F. […] 8B & 8C) Quantification of soluble and insoluble a-syn from midbrains of FTI-treated DASYN53 mice normalized to total protein (CBB). […] 8D) Midbrain TH levels were quantified by western blot of FTI-treated DASYN53 mice (n=3). […]
Analysis of post-ER GCase. […] Endo H resistant bands migrating at 62-64 kDa were measured as post-ER forms of GCase, and normalized to GAPDH levels. […]

Turning to `C#Cc1cccc(-c2cc(=O)n(C)c3ccc([C@](O)(c4ccc(Cl)cc4)c4cncn4C)cc23)c1` [LNK-754], in the experiment with ykt6, the “reduced membrane-associated ykt6 and SNARE complexes of DASYN53 mice” value was “reversed these effects”. For the same compound, the “enhancement of GCase activity in midbrain” value with GCase was “ca. 40%”. Moreover, in the experiment with GCase (midbrain lysates), the “GCase trafficking (mature, endo H resistant forms)” value is listed as “enhanced GCase trafficking”.
